Here are results for three compounds from patent US20030148966A1, “Method and composition for inducing apoptosis in cells” (priority 2002, published 2003).

By viability is commonly meant a read-out of living cells in per cent, often relative to untreated cells. A low value points to more harm to the cells.

The structures appear in SMILES notation. Where “and” joins values, the source holds several entries; their conditions need not be identical. Equal entries are not always repeated. Where two headings read alike, the source gives them in different places.

Data set [1] concerns HL-60 cells. Put plainly: Deoxyribonucleotide (dNTP) extraction and DNA-polymerase assay. Conditions: 16 hours; for % dATP / % dCTP: percent of control. The format is cell-based, human. The procedure:
The TCA extract was dried using a Speedvac drying system at room temperature and, if necessary, stored at −20° C. until analysis. The assay for dNTP, which is based on the original DNA-polymerase assay^22, was optimized by the use of 96-well plates^23 and tailor-made oligonucleotides^24,25, and was performed as previously described for dCTP^21. After reconstitution of the samples in Hepes-buffered assay buffer (pH 7.3) at 10^7 cells/ml, samples and standards (0, 1, 2.5 and 5 pmol dNTP) were added to diethylaminoethyl (DEAE) filter plates (Millipore, Ettenleur, The Netherlands). This was followed by the addition of demi water (up to 30 μl if a reaction mix, consisting of 10 μl [8-^3H]dATP (25 μM; 1.6 Ci/mmol; 0.04 μCi/μl) for detection of dCTP, dTTP and dGTP and 10 μl[CH3-^3H]dTTP (25 μM; 1.6 Ci/mmol; 0.04 μCi/μl) for dATP detection, 5 μl appropriate oligonucleotide (6 μM. consisting of a primer attached to one of four possible templates specially designed for the detection of one of the four dNTPs), 5 μl Klenow DNA pol I and […] assay buffer. The filterplates were gently vortexed and incubated at room temperature for 2 hours. The wells were washed, the wet filters punched out and radioactivity counted as described^21. The dNTP levels were determined after 16-hours of treatment. At this time point, cells were still alive and membranes intact, preventing non-specific loss of dNTP's^33. […] Whereas, dCTP (89% of control)- and dATP (81% of control)-levels were in the range of control when cells were treated with 5 μM BR, exposure to 20 μM BR, caused a drop in dCTP and dATP levels to 37% and 33%, respectively.

In data set [2] the test system is HL-60 cells. Conditions: 48 hours.
A further data set in a line: in vitro. The settings on record: human.
Data set [3] has as its system HL-60 cells. Briefly: ATP bioluminescence assay (intracellular ATP content). The format is cell-based, human. Conditions: 16 hours, percent of untreated control. The procedure: ATP content was measured with the ATP bioluminescence assay kit HS II from Boehringer Mannheim (Roche Molecular Biochemicals, Mannheim, Germany). Cells were treated with adenosine and BR for 16 hours, and subsequently their viability was measured by trypan blue exclusion. […] An equal amount of cell lysis reagent was then added, and after an incubation period of 5 minutes at room temperature, the samples were transferred to microtiter plates. A Luciferase reagent (100 μl) was added and the signal was detected immediately on a lumi Imager F1 (Roche). Experiments were done in triplicates, and the values of treated samples calculated as percent of untreated controls. […] Cells were harvested and the intercellular ATP content was measured as described in herein. Statistical analysis by t-test confirmed that the differences between ATP-levels after treatment with BR (+/−adenosine) were significant (p<0.05).

In data set [4] the test system is HL-60 cells. Briefly: Comet assay (single cell gel electrophoresis), DNA strand breaks. Conditions: for DNA tail length: % of cells <= 25 μm: 16 hours, alkaline pH 13.0; for DNA single strand breaks: alkaline pH (13.0). In kind it is cell-based, human.
Data set [5] has as its system HL-60 cells. Put plainly: Transmission electron microscopy of cell morphology. The format is cell-based, human. The settings on record: 48 hours. The procedure:
For transmission electron microscopy (TEM) cells treated with PBS (controls), […] glutaraldehyde (in 0.1 M sodium cacodylate buffer with 4% sucrose, pH 7.2) for 45 minutes, washed in sodium cacodylate buffer and post-fixed in 2% osmium tetroxide (in 0.1 M sodium cacodylate buffer with 4% sucrose) for 45 minutes. Following several washes, the cells were concentrated by centrifugation at 150 g for 5 minutes, dehydrated in a graded series of ethanol, washed in propylene oxide, embedded in Epon (Serva, Germany), and sectioned at about 70 nm. The ultra-thin sections were stained with uranyl acetate/lead citrate for observation with a Zeiss EM 902 transmission electron microscope.
The bars at the lower right corners indicated 1.1 μm.

In the next data set the test system is leukemia cells. Briefly: Oncolytic activity against leukemia cells. In kind it is cell-based.
The test system of data set [6] is HL-60 cells. Put plainly: Western blots: PARP, gelsolin and Caspase 3 cleavage. In kind it is cell-based, human. The procedure: Cells from treated and untreated cultures were sedimented, washed in cold PBS, and lysed in SDS sample buffer (25 mM TRIS pH 6.8, 3% SDS, 10% glycerol, 36 mM DTT, 0.925 mM EDTA). Equal amounts of protein (calculated with the Dot Metric Protein Assay Kit from Novus Molecular, San Diego, Calif., USA) were loaded onto 10% or 15% polyacrylamide gels. Proteins were electrophoresed at 80 V for 2 to 3 hours, and then transblotted onto PVDF membranes (Hybond P, Amersham International, UK) at 80 V for 2 hours^20. Membranes were quenched in PBS with 0.5% skim milk and 0.05% Tween 20 for 1 hour, incubated with primary antibodies (mouse monoclonal anti PARP C-2-10 used 1:2000, mouse monoclonal anti-gelsolin used 1:2000, Sigma; rabbit polyclonal anti caspase 3 antibody used 1:1000, St. Cruz) overnight at 4° C., and with horseradish peroxidase, conjugated secondary antibody for 2 hours at room temperature. The ECL kit (Amersham International, UK) was used for blot development; chemiluminescence was detected on Kodak Xomat UV films.
Controls were treated with saline for 24 hours and western blots were performed as described herein. The 89 kD cleavage product of PARP and the 41 kD cleavage product of gelsolin could be detected upon treatment with 5 μM and 10 μM BR, and diminished in response to higher doses of BR.
5 μM and 10 μM BR, which mainly induce apoptosis, triggering processing of caspase 3.20 μM and 40 μM BR mainly provokes necrosis. This is also reflected by the reduced levels of activated caspase 3. In the presence of adenosine, 20 μM and 40 μM BR activate caspase 3 and also induce apoptosis. Equal sample loading was controlled by Ponceau S staining.
On the technique in general: Immunoblotting shows a protein as a band on a membrane.

Consider `Nc1ncnc2c1ncn2[C@@H]1O[C@H](CO)[C@@H](O)[C@H]1O` [Ade, adenosine, reference compound], for which, in the data set on HL-60 cells [1] (adenosine alone), the “% dATP” value was 70% and the “% dCTP” value is on record as 64%. Also, in the data set with HL-60 cells [2] (adenosine alone), the “% apopt” value is 7%, the “% necro” value is recorded as 0%, the “% total death” value is on record as 7% and the “% viable + apopt” value turned out to be 100%. The compound further returned a viability at 48 h, 800 µM in the data set “in vitro” of 93%. Moreover, in the data set with HL-60 cells [3] (adenosine alone (800 μM)), the “% ATP” value is 85%. Further, the “DNA tail length: % of cells <= 25 μm” value with HL-60 cells [4] (adenosine alone) came out at 98% <= 25 μm.

`CC1=C(/C=C/C(C)=C/C=C/C(C)=C/C(=O)O)C(C)(C)CCC1` [ATRA, all-trans retinoic acid, reference compound]: in the data set on HL-60 cells [2] (120 μM ATRA), the “% apoptotic cells” value is 30% and the “% necrotic cells” value stood at 45%.

Regarding `NC(=O)c1cccc([C@@H]2O[C@H](CO)[C@@H](O)[C@H]2O)c1` [BR, benzamide riboside], the “% dATP” value in the data set with HL-60 cells [1] (5 μM BR +/- adenosine) was determined as 81%; with HL-60 cells [1] (20 μM BR +/- adenosine), 33%. In addition, the “% dCTP” value in the data set with HL-60 cells [1] (5 μM BR +/- adenosine) came out at 89%; in the data set on HL-60 cells [1] (20 μM BR +/- adenosine), 37%. Besides, in the data set with HL-60 cells [1] (5 μM or 20 μM BR), the “dGTP levels, % of control” value was “approximately 53%”. Also, the “% apopt” value in the data set with HL-60 cells [2] (5 μM BR +/- adenosine) was determined as 69%; in the data set with HL-60 cells [2] (20 μM BR +/- adenosine), 30%. For the same compound, the “% necro” value in the data set with HL-60 cells [2] (5 μM BR +/- adenosine) is 2%; in the data set on HL-60 cells [2] (20 μM BR +/- adenosine), 51%. Further, the “% total death” value with HL-60 cells [2] (5 μM BR +/- adenosine) stood at 71%; in the data set on HL-60 cells [2] (20 μM BR +/- adenosine) it was 81%. Further, the “% viable + apopt” value in the data set on HL-60 cells [2] (5 μM BR +/- adenosine) is recorded as 98%; in the data set with HL-60 cells [2] (20 μM BR +/- adenosine), 49%. Moreover, the results for the “cell morphology by electron microscopy” value with HL-60 cells [5] (5 μM BR) and in the data set on HL-60 cells [5] (20 μM BR) were “electron dense chromatin marginated at the nuclear envelope as a hallmark of apoptosis” and “typical necrotic morphology”, respectively. Besides, the “concentration range of strong oncolytic activity” value in the data set with leukemia cells was 5 to 10 µM. Further, the “cell death and gelsolin cleavage” value with HL-60 cells [6] (0.5 μM, 1 μM or 2 μM BR, 24 hours) is on record as “neither induced cell death, nor gelosin cleavage”. Further, the “Caspase 3 activation (p20 kD fragment)” value is “Caspase 3 activation culminated” with HL-60 cells [6] (5 μM and 10 μM BR, 24 hours); “activation was inhibited” in the data set on HL-60 cells [6] (20 μM or 40 μM BR +/- 800 μM adenosine). Also, the “cell death mode; gelsolin (41 kD) and PARP (89 kD) fragmentation” value in the data set with HL-60 cells [6] (5 μM or 10 μM BR, 24 hours) was “caused apoptosis”. Also, in the data set on HL-60 cells [6] (20 μM BR, 24 hours), the “cell death mode; PARP and gelsolin fragmentation” value is given as “increase of the fraction of necrotic cells”. The “% ATP” value was 50% in the data set with HL-60 cells [3] (5 μM BR +/- adenosine (800 μM)); 3% and 2.7% in the data set on HL-60 cells [3] (20 μM BR +/- adenosine (800 μM)). Besides, the “DNA single strand breaks” value with HL-60 cells [4] (5 μM BR) is reported as “but not with 5 μM BR treatment”; with HL-60 cells [4] (20 μM BR), “DNA single strand breaks occurred”. The “DNA tail length: % of cells <= 25 μm” value in the data set on HL-60 cells [4] (20 μM BR +/- adenosine) was 50% <= 25 μm. For the same compound, the “DNA double strand breaks” value in the data set on HL-60 cells [4] (20 μM BR, 8 hours, neutral pH (7.5)) was “induced DNA double strand breaks”.
